Here are results for five molecules from US11590232B2, “Bioconjugates of neuropeptides derivatives” (CENTRE NATIONAL DE LA RECHERCHE SCIENTIFIQUE, priority 2018, dated 2023).

Data set [1] can be described thus: In vivo imaging biodistribution (IVIS Lumina) in mice with λ-carrageenan-induced paw inflammation. Set-up: species or system Swiss mice. The note with it: i.v. injection, λ-carrageenan administered mice. The procedure:
In parallel, control non-inflamed shaved mice (injected with 20 μL saline into the right hind paw, instead of λ-carrageenan), received also injection of fluorescent LENK-SQ NPs. The biodistribution of the NPs was recorded at 0.5, 2, 4, 6 and 24 h after excitation at 640 nm and emission in the 695-775 nm filter respectively, using IVIS Lumina LT series III system (Caliper, Life science). During imaging, the mice were kept on the imaging stage under anesthesia with 2% isoflurane gas in oxygen flow (1 L/min) and were imaged in ventral position. Images and measures of fluorescence signals were acquired and analyzed with Living Imaging®. To measure photon radiance, regions of interest (ROI, threshold of 35%) were selected on the paw of the mice and average radiant efficiency values were used for quantification. Threshold of ROI for the inflamed paw was then pasted on the non-inflamed paw to compare the radiance with the same region.

Data set [2] concerns central or peripheral opioid receptors. The data set is described as follows: Opioid receptor blockade with naloxone or naloxone methiodide before agonist, Hargreaves test. Type of data set: in vivo, Sprague-Dawley rats. Particulars: for reduction of AUC value by NaI pre-treatment compared with agonist alone: NaI (naloxone, brain-permeant) 0.5 mg/kg s.c. 15 min before agonist; for reduction of AUC value by NaI-M pre-treatment compared with agonist alone: NaI-M (naloxone methiodide, brain-impermeant) 0.5 mg/kg s.c. 15 min before agonist.

The nature of data set [3]: Dynamic light scattering (DLS) measurement of LENK-SQ NPs: size, zeta potential. Particulars: in 0.1 mM KCl. It counts as physicochemical. The procedure: The mean particle size, polydispersity index (PDI) and zeta potential were primarily evaluated by DLS (Nano ZS, Malvern; 173° scattering angle at 25° C.).
The measurements were performed in triplicate following appropriate dilution of the nanoparticles in water (DLS) or in 0.1 mM KCl (zeta potential).

The conditions of data set [4]: 37° C. The procedure:
In the case of LENK-SQ-Diox NPs, diluted serum (30% in 5% dextrose solution) was used for the release study. […] To quantify the residual LENK-SQ bioconjugate and the released LENK, the resulting supernatants (150 μL) were evaporated to dryness at 40° C. under nitrogen flow, and then solubilized in 150 μL of Milli-Q water.

For data set [5], the system named is thermal hyperalgesia in λ-carrageenan-treated rats. The data set is described as follows: Hargreaves test (thermal nociceptive test) in λ-carrageenan-induced inflammatory pain. Type of data set: in vivo, Sprague-Dawley rats.
Setting [6] is: diluted mouse serum (30% in 5% dextrose solution).

Turning to `CCCCCCCCCCCCCCCCCCN1/C(=C/C=C/C=C/C2=[N+](CCCCCCCCCCCCCCCCCC)c3ccccc3C2(C)C)C(C)(C)c2ccccc21.[O-][Cl+3]([O-])([O-])[O-]` [DiD solution], in data set [1], the “accumulation of fluorescence in the inflamed paw” value was “no significant accumulation of fluorescence”.

With `CC(C)=CCC/C(C)=C/CC/C(C)=C/CC/C=C(\C)CC/C=C(\C)CCC(=O)NC(Cc1ccc(O)cc1)C(=O)NCC(=O)NCC(=O)NC(Cc1ccccc1)C(=O)NC(CC(C)C)C(=O)O` (centres unmarked) [LENK-SQ-Am, Leu-enkephalin-squalene Bioconjugate with Amide Spacer], in data set [2], the “reduction of AUC value by NaI pre-treatment compared with agonist alone” value is reported as 73% and the “reduction of AUC value by NaI-M pre-treatment compared with agonist alone” value is given as 96%. The “zeta potential (sign of charge) of NPs” value in data set [3] is given as “negative”. For the same molecule, in data set [4] (mouse serum), the “time stable in serum without significant decrease of bioconjugate” value is given as at least 48 h.

In the case of `CC(C)=CCC/C(C)=C/CC/C(C)=C/CC/C=C(\C)CC/C=C(\C)CCCOC(=O)COCC(=O)NC(Cc1ccc(O)cc1)C(=O)NCC(=O)NCC(=O)NC(Cc1ccccc1)C(=O)NC(CC(C)C)C(=O)O` (centres unmarked) [LENK-SQ-Dig, Leu-enkephalin-squalene Bioconjugate with diglycolic Spacer], the “zeta potential (sign of charge) of NPs” value in data set [3] was “negative”. Besides, in data set [4] (mouse serum), the “release of free LENK peptide” value is reported as “no presence of free peptide was detected” and the “time of complete disappearance of the bioconjugate” value turned out to be 2 h. For the same molecule, in data set [5] (20 mg/kg i.v., rats), the “time of decline of PWL down to baseline” value worked out at 220 min.

Turning to `CC(C)=CCC/C(C)=C/CC/C(C)=C/CC/C=C(\C)CC/C=C(\C)CCC(=O)OCOC(=O)C(CC(C)C)NC(=O)C(Cc1ccccc1)NC(=O)CNC(=O)CNC(=O)C(N)Cc1ccc(O)cc1` (centres unmarked) [LENK-SQ-Diox, Leu-Enkephalin-Squalene Bioconjugate with Dioxycarbonyl Spacer], in data set [2], the “reduction of AUC value by NaI pre-treatment compared with agonist alone” value is 66% and the “reduction of AUC value by NaI-M pre-treatment compared with agonist alone” value amounted to 81%. Also, in data set [3], the “zeta potential (sign of charge) of NPs” value is reported as “net positive charge”. In addition, in data set [4] (setting [6]), the “release of the free LENK peptide” value is “progressively released the free LENK peptide” and the “time till which the concentration of the bioconjugate decreased gradually” value stood at 7 h.

In the case of `CN1CC[C@]23c4c5ccc(O)c4O[C@H]2[C@@H](O)C=C[C@H]3[C@H]1C5` [morphine], in data set [5] (10 min post-injection, morphine 1 mg/kg, 3 h after λ-carrageenan, rats), the “paw withdrawal latency (PWL)” value came to 12.87 ± 1.38 s. Also, in data set [5] (morphine 1 mg/kg, rats), the “time post-administration at which no longer significant anti-hyperalgesic effect was observed” value worked out at 100 min. Moreover, the “maximal PWL values compared with basal PWL of control naïve rats” value in data set [5] (λ-carrageenan-treated rats) is “twice as high as those found in control naïve rats”.
